For orientation: Ki means a dissociation constant, usually derived from enzyme kinetics or from competition with a known ligand.

In this assay the target is T1, placental aromatase (Homo sapiens, UniProt P11511).
T1 construct: Microsomal aromatase was obtained from human placenta; from tissue; host or cells: human placenta microsomes
T1 sequence (P11511 1-503): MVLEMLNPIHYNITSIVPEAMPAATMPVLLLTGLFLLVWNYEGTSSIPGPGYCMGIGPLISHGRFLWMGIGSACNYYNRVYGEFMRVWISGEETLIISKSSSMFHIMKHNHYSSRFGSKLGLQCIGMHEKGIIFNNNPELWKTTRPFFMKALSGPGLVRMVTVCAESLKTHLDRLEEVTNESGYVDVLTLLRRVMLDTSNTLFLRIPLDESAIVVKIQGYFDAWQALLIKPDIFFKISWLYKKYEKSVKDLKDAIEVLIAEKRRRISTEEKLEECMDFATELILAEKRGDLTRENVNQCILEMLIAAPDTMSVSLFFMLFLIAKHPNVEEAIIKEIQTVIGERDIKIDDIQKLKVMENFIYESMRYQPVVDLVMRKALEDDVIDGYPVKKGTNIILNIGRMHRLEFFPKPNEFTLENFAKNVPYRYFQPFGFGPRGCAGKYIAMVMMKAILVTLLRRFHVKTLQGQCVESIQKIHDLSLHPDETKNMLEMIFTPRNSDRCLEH
Description: Inhibition of placental aromatase activity (tritiated water release from [3H]androstenedione; modified Thompson and Siiteri assay). Type of assay: biochemical. Particulars: for aromatase inhibitory activity (in words): qualitative statement. The method, then: Microsomal aromatase was obtained from human placenta. A reaction vessel was prepared containing microsomes (0.124 mg protein/ml), NADPH (0.625 mM), [^3 H]androstenedione (0.33 μM) and increasing concentrations of the potential inhibitor being tested in buffer (800 μl) (0.1M KH2 PO4, pH 7.5). The conversion of androstenedione to estrone was allowed to proceed at 37° C. for 30 min and stopped by addition of 200 μl of charcoal suspension (25 mg/ml) in the same buffer. After centrifugation, tritiated water contained in 100 μl of supernatant was counted. The amount of tritiated water is proportional to the amount of transformed [^3 H] androstenedione.

For `C=CC[C@@H]1C[C@H]2CC(=O)CC[C@]2(C)[C@H]2CC[C@]3(C)C(=O)CC[C@H]3[C@H]12` [EM 198, 7α-allyl-5α-androstan-3,17-dione], the affinity corresponds to a Ki of 0.6 µM and the “aromatase inhibitory activity (in words)” value is listed as “showed aromatase inhibitory activity”.

On to `C=CC[C@@H]1CC2=CC(=O)CC[C@]2(C)[C@H]2CC[C@]3(C)C(=O)CC[C@H]3[C@H]12` [EM 173, 7α-allyl-4-androsten-3,17-dione], for which the affinity, expressed as Ki, was 0.2 µM and the “aromatase inhibitory activity (in words)” value is given as “showed aromatase inhibitory activity”.

On to `C=CC[C@@H]1C[C@@H]2CC(=O)CC[C@]2(C)[C@H]2CC[C@]3(C)C(=O)CC[C@H]3[C@H]12` [EM 176, 7α-allyl-5β-androstan-3,17-dione], for which the inhibition constant Ki worked out at 0.9 µM and the “aromatase inhibitory activity (in words)” value was “showed aromatase inhibitory activity”.

These data come from patent US5227375A, “Aromatase inhibitors” (Endorecherche, Inc., priority 1990, dated 1993).
